From ChEMBL document CHEMBL5241112, “Insights into the recent progress in the medicinal chemistry of pyranopyrimidine analogs” (RSC Med Chem, 2022)
Converted amounts (≈) assume the structure as drawn.

Key:
[1] = tested on: Staphylococcus aureus; assay: Antibacterial activity against Staphylococcus aureus MLS-16 MTCC 2940 assessed as bacterial growth inhibition incubated for 24 hrs by broth microdilution method; type: functional
[2] = target: T1, Free fatty acid receptor 3 (Homo sapiens, UniProt O14843); assay: Agonist activity at FFA3 (unknown origin) expressed in human Flp-In-293 cells assessed as inhibition of forskolin-stimulated cAMP accumulation incubated for 30 mins by Lance cAMP assay; type: cell-based
T1 sequence (O14843 whole entry): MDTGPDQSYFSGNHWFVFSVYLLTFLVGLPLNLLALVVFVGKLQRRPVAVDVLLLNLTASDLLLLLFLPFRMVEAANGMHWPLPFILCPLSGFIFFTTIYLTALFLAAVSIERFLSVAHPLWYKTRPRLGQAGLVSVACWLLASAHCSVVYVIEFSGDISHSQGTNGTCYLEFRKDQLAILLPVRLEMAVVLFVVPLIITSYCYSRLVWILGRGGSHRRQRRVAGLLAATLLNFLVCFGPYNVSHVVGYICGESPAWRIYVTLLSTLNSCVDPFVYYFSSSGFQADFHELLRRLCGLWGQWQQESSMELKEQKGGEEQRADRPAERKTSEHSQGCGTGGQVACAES

[3] = target: Hydroxycarboxylic acid receptor 2 (Homo sapiens, UniProt Q8TDS4); assay: Agonist activity at human HCA2 expressed in human Flp-In-293 cells assessed as inhibition of forskolin-stimulated cAMP accumulation incubated for 30 mins by Lance cAMP assay; type: cell-based
Chain of Hydroxycarboxylic acid receptor 2 (Q8TDS4 whole entry): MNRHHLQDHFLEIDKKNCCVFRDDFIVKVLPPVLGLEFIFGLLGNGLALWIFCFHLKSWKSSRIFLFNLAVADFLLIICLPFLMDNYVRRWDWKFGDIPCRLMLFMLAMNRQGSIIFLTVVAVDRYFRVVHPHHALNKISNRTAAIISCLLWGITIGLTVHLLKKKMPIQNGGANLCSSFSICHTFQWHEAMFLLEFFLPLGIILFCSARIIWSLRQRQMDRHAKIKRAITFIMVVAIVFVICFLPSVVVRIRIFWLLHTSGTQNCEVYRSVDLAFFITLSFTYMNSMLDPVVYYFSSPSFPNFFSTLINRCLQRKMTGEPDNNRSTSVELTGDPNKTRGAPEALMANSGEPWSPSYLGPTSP

[4] = tested on: Klebsiella pneumoniae; assay: Antibacterial activity against Klebsiella pneumoniae assessed as bacterial growth inhibition by broth microdilution method; type: functional
[5] = tested on: Candida albicans; assay: Antifungal activity against Candida albicans assessed as fungal growth inhibition by broth microdilution method; type: functional
[6] = tested on: Pseudomonas aeruginosa; assay: Antibacterial activity against Pseudomonas aeruginosa assessed as bacterial growth inhibition by broth microdilution method; type: functional
[7] = tested on: Escherichia coli; assay: Antibacterial activity against Escherichia coli assessed as bacterial growth inhibition by broth microdilution method; type: functional
[8] = tested on: Staphylococcus aureus; assay: Antibacterial activity against Staphylococcus aureus assessed as bacterial growth inhibition by broth microdilution method; type: functional
[9] = tested on: Aspergillus flavus; assay: Antifungal activity against Aspergillus flavus assessed as fungal growth inhibition by broth microdilution method; type: functional
[10] = tested on: Klebsiella pneumoniae; assay: Antimicrobial activity against Klebsiella pneumoniae assessed as diameter of inhibition zone at 1 mg/ml incubated for 48 hrs by agar disk diffusion method; type: functional; conditions: read-out: DIZ
[11] = tested on: Pseudomonas aeruginosa; assay: Antimicrobial activity against Pseudomonas aeruginosa assessed as diameter of inhibition zone at 1 mg/ml incubated for 48 hrs by agar disk diffusion method; type: functional; conditions: read-out: DIZ
[12] = tested on: Aspergillus niger; assay: Antifungal activity against Aspergillus niger assessed as diameter of inhibition zone at 1 mg/ml incubated for 72 to 91 hrs by agar disk diffusion method; type: functional; conditions: time 72-91 hrs, read-out: DIZ
[13] = tested on: Escherichia coli; assay: Antimicrobial activity against Escherichia coli assessed as diameter of inhibition zone at 1 mg/ml incubated for 48 hrs by agar disk diffusion method; type: functional; conditions: read-out: DIZ
[14] = tested on: Penicillium chrysogenum; assay: Antifungal activity against Penicillium chrysogenum assessed as diameter of inhibition zone at 1 mg/ml incubated for 72 to 91 hrs by agar disk diffusion method; type: functional; conditions: time 72-91 hrs, read-out: DIZ
[15] = tested on: Staphylococcus aureus; assay: Antimicrobial activity against Staphylococcus aureus assessed as diameter of inhibition zone at 1 mg/ml incubated for 48 hrs by agar disk diffusion method; type: functional; conditions: read-out: DIZ
[16] = tested on: Bacillus cereus; assay: Antimicrobial activity against Bacillus cereus assessed as diameter of inhibition zone at 1 mg/ml incubated for 48 hrs by agar disk diffusion method; type: functional; conditions: read-out: DIZ
[17] = tested on: Aspergillus flavus; assay: Antifungal activity against Aspergillus flavus assessed as inhibition of fungal growth; type: functional
[18] = tested on: Aspergillus niger; assay: Antifungal activity against Aspergillus niger assessed as inhibition of fungal growth; type: functional
[19] = tested on: Candida albicans; assay: Antifungal activity against Candida albicans assessed as inhibition of fungal growth; type: functional
[20] = tested on: Aspergillus ochraceus; assay: Antifungal activity against Aspergillus ochraceus assessed as diameter of inhibition zone by disc diffusion method; type: functional
[21] = tested on: Penicillium chrysogenum; assay: Antifungal activity against Penicillium chrysogenum AUCC-530 assessed as diameter of inhibition zone incubated for 24 hrs by disc diffusion method; type: functional
[22] = tested on: Penicillium chrysogenum; assay: Antifungal activity against Penicillium chrysogenum assessed as diameter of inhibition zone by disc diffusion method; type: functional
[23] = tested on: Aspergillus ochraceus; assay: Antifungal activity against Aspergillus ochraceus AUCC-230 assessed as diameter of inhibition zone incubated for 24 hrs by disc diffusion method; type: functional
[24] = tested on: Mycobacterium tuberculosis; assay: Antitubercular activity against Mycobacterium tuberculosis H37Rv assessed as bacterial growth inhibition at 250 ug/ml; type: functional
[25] = tested on: Mycobacterium tuberculosis; assay: Antitubercular activity against Mycobacterium tuberculosis H37Rv assessed as bacterial growth inhibition at 100 ug/ml; type: functional
[26] = tested on: Escherichia coli; assay: Antibacterial activity against Escherichia coli assessed as diameter of inhibition zone; type: functional
[27] = tested on: Salmonella typhimurium; assay: Antibacterial activity against Salmonella typhimurium assessed as diameter of inhibition zone; type: functional, Salmonella enterica subsp. enterica serovar Typhimurium
[28] = tested on: Bacillus subtilis; assay: Antibacterial activity against Bacillus subtilis assessed as diameter of inhibition zone; type: functional
[29] = target: Urease (Canavalia ensiformis, UniProt P07374); assay: Inhibition of jack bean urease by phenol red method
Chain of Urease (P07374 whole entry): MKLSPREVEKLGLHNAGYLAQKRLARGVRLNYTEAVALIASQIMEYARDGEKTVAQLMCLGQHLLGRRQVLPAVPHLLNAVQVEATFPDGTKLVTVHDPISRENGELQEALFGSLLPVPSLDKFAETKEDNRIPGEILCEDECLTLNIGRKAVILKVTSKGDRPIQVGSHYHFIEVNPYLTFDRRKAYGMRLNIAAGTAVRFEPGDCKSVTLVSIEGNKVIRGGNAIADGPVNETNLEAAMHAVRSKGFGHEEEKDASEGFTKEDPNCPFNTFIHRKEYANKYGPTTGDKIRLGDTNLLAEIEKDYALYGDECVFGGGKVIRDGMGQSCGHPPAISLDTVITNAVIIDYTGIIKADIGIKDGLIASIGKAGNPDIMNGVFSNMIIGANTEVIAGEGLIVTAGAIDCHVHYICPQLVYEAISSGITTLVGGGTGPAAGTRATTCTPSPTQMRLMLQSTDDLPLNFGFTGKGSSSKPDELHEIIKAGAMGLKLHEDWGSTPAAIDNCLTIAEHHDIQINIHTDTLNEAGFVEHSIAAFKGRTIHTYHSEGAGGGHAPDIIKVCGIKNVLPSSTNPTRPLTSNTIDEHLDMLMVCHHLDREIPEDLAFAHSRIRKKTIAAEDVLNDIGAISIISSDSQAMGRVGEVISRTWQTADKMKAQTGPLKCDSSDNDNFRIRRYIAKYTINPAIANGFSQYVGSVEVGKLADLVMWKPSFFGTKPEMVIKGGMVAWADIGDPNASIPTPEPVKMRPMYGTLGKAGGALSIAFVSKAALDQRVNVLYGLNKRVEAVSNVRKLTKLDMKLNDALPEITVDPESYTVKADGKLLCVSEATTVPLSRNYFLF

[30] = tested on: Staphylococcus aureus; assay: Antibacterial activity against Staphylococcus aureus assessed as diameter of inhibition zone; type: functional
[31] = tested on: A549; assay: Anticancer activity against human A549 cells assessed as reduction in cell viability incubated for 24 hrs by MTT assay; type: functional, cell-based; conditions: A549, 24 h
[32] = tested on: Staphylococcus aureus; assay: Antibacterial activity against Staphylococcus aureus MTCC 96 assessed as bacterial growth inhibition incubated for 24 hrs by broth microdilution method; type: functional
[33] = tested on: Klebsiella pneumoniae; assay: Antimicrobial activity against Klebsiella pneumoniae ATCC 15380 assessed as diameter of inhibition zone at 20 mg/ml incubated for 24 hrs by disk diffusion method; type: functional; conditions: read-out: DIZ

Cc1cc2c(c(=O)o1)C(c1ccccc1)c1c(Nc3ccc(Cl)cc3)ncnc1O2 (centres undefined)
MIC [1]: 15.6 µg/mL (≈ 37.3 µM)

O=c1cc(CCCCCl)c2c(=O)[nH]c(=S)[nH]c2o1
EC50 [2]: 220 nM | EC50 [3]: 51 nM

CCO/C=N/C1=C(C#N)C(c2ccccc2F)c2c(n(C)c(=O)n(C)c2=O)O1 (centres undefined)
MIC [4]: 6.25 µg/mL (≈ 16.3 µM) | MIC [5]: 6.25 µg/mL (≈ 16.3 µM) | MIC [6]: 6.25 µg/mL (≈ 16.3 µM) | MIC [7]: 6.25 µg/mL (≈ 16.3 µM) | MIC [8]: 6.25 µg/mL (≈ 16.3 µM) | MIC [9]: 6.25 µg/mL (≈ 16.3 µM)

COC(=O)C1=C(N)Oc2[nH]c(=S)[nH]c(=O)c2C1c1ccc([N+](=O)[O-])cc1 (centres undefined)
zone of inhibition at 1000 µg/mL [10]: 17 mm | zone of inhibition at 1000 µg/mL [11]: 20 mm | zone of inhibition at 1000 µg/mL [12]: 23 mm | zone of inhibition at 1000 µg/mL [13]: 17 mm | zone of inhibition at 1000 µg/mL [14]: 12 mm | zone of inhibition at 1000 µg/mL [15]: 17 mm | zone of inhibition at 1000 µg/mL [16]: 21 mm

CCC1C(C#N)=C(N)Oc2[nH]c(=O)[nH]c(=O)c21 (centres undefined)
MIC [17]: 150 µg/mL (≈ 640 µM) | MIC [18]: 162 µg/mL (≈ 694 µM) | MIC [19]: 125 µg/mL (≈ 534 µM)

NYSTATIN
inhibition zone (IZ) [20]: 22 mm | inhibition zone (IZ) [21]: 24 mm | inhibition zone (IZ) [22]: 24 mm | inhibition zone (IZ) [23]: 22 mm

CO[C@H]1/C=C/O[C@@]2(C)Oc3c(C)c(O)c4c(O)c(c(/C=N/N5CCN(C)CC5)c(O)c4c3C2=O)NC(=O)/C(C)=C\C=C\[C@H](C)[C@H](O)[C@@H](C)[C@@H](O)[C@@H](C)[C@H](OC(C)=O)[C@@H]1C [RIFAMPIN]
inhibition at 250 µg/mL [24]: 98% | inhibition at 100 µg/mL [25]: 98%

CCO/C=N/C1=C(C#N)C(c2cc(OC)ccc2OC)c2c(n(C)c(=O)n(C)c2=O)O1 (centres undefined)
MIC [4]: 6.25 µg/mL (≈ 14.7 µM) | MIC [5]: 3.12 µg/mL (≈ 7.32 µM) | MIC [6]: 6.25 µg/mL (≈ 14.7 µM) | MIC [7]: 6.25 µg/mL (≈ 14.7 µM) | MIC [8]: 6.25 µg/mL (≈ 14.7 µM) | MIC [9]: 3.12 µg/mL (≈ 7.32 µM)

COC(=O)C1=C(N)Oc2[nH]c(=S)[nH]c(=O)c2C1c1ccc(C)cc1 (centres undefined)
zone of inhibition at 1000 µg/mL [10]: 19 mm | zone of inhibition at 1000 µg/mL [11]: 21 mm | zone of inhibition at 1000 µg/mL [12]: 23 mm | zone of inhibition at 1000 µg/mL [13]: 16 mm | zone of inhibition at 1000 µg/mL [14]: 23 mm | zone of inhibition at 1000 µg/mL [15]: 15 mm | zone of inhibition at 1000 µg/mL [16]: 12 mm

N#CC1=C(N)Oc2[nH]c(=O)[nH]c(=O)c2C1c1ccc(Cl)cc1 (centres undefined)
MIC [17]: 150 µg/mL (≈ 474 µM) | diameter of the inhibition zone (DIZ) [26]: 16 mm | diameter of the inhibition zone (DIZ) [27]: 20 mm | diameter of the inhibition zone (DIZ) [28]: 16 mm | MIC [18]: 162 µg/mL (≈ 513 µM) | IC50 [29]: 49700 nM | diameter of the inhibition zone (DIZ) [30]: 18 mm | MIC [19]: 125 µg/mL (≈ 395 µM)

CCOC(=O)C1=C(C)Oc2nc(C)n(Cc3cn(-c4ccc(OC)cc4[N+](=O)[O-])nn3)c(=O)c2C1c1ccccc1 (centres undefined)
IC50 [31]: 5760 nM

Cc1cc(=O)oc2[nH]c(=S)[nH]c(=O)c12
EC50 [2]: 220 nM | EC50 [3]: 51 nM

Cc1cc2c(c(=O)o1)C(c1ccccc1)c1c(Nc3ccc([N+](=O)[O-])cc3)ncnc1O2 (centres undefined)
MIC [1]: 15.6 µg/mL (≈ 36.4 µM) | MIC [32]: 7.8 µg/mL (≈ 18.2 µM)

CCCCc1cc(=O)oc2[nH]c(=S)[nH]c(=O)c12
EC50 [2]: 220 nM | EC50 [3]: 51 nM

Cc1ccc(C2C(C#N)=C(N)Oc3[nH]c(=O)[nH]c(=O)c32)o1 (centres undefined)
zone of inhibition at 20000 µg/mL [33]: 16 mm

Cc1cc2c(c(=O)o1)C(c1ccc(F)cc1)c1c(Nc3ccc([N+](=O)[O-])cc3)ncnc1O2 (centres undefined)
MIC [1]: 15.6 µg/mL (≈ 34.9 µM) | MIC [32]: 7.8 µg/mL (≈ 17.5 µM)

CCO/C=N/C1=C(C#N)C(c2cccc(OC)c2OC)c2c(n(C)c(=O)n(C)c2=O)O1 (centres undefined)
MIC [4]: 6.25 µg/mL (≈ 14.7 µM) | MIC [5]: 6.25 µg/mL (≈ 14.7 µM) | MIC [6]: 6.25 µg/mL (≈ 14.7 µM) | MIC [7]: 6.25 µg/mL (≈ 14.7 µM) | MIC [8]: 6.25 µg/mL (≈ 14.7 µM) | MIC [9]: 3.12 µg/mL (≈ 7.32 µM)

CCO/C=N/C1=C(C#N)C(c2ccc(Cl)cc2)c2c(n(C)c(=O)n(C)c2=O)O1 (centres undefined)
MIC [4]: 6.25 µg/mL (≈ 15.6 µM) | MIC [5]: 3.12 µg/mL (≈ 7.78 µM) | MIC [6]: 6.25 µg/mL (≈ 15.6 µM) | MIC [7]: 6.25 µg/mL (≈ 15.6 µM) | MIC [8]: 6.25 µg/mL (≈ 15.6 µM) | MIC [9]: 3.12 µg/mL (≈ 7.78 µM)

CCOC(=O)C1=C(C)Oc2nc(C)n(Cc3cn(-c4ccc([N+](=O)[O-])cc4)nn3)c(=O)c2C1c1cccs1 (centres undefined)
IC50 [31]: 1850 nM
